What was measured:
Plasmodium falciparum [1] = assay: NOVARTIS: Inhibition of Plasmodium falciparum 3D7 (drug-susceptible) proliferation in erythrocyte-based infection assay; type: functional, organism-based; settings: Plasmodium falciparum, 3D7
Plasmodium falciparum [2] = assay: NOVARTIS: Inhibition of Plasmodium falciparum W2 (drug-resistant) proliferation in erythrocyte-based infection assay; type: functional, organism-based; settings: Plasmodium falciparum, W2; read-out: EC50
[3] = NOVARTIS: Cytotoxicity against human hepatocellular carcinoma cell line (Huh7); type: toxicity, cell-based, Huh-7; settings: Huh7 cells (hepatocellular carcinoma cell line)

Compound | EC50 (Plasmodium falciparum [1]) | EC50 (Plasmodium falciparum [2]) | CC50 [3]
OP1(O)=NP(O)(O)=NP(O)(O)=NP(O)(O)=N1 | 811 nM | > 1250 nM | > 10000 nM
O=C(CSc1nc2ccccc2[nH]1)Nc1ccc(Cl)cc1Cl | > 790 nM | > 1250 nM | > 10000 nM
CON(C)C(=O)c1cccc2ccccc12 | 856 nM | > 1250 nM | > 10000 nM
CCn1c2cc(C)sc2c2cnn(CC(=O)Nc3c(C)nn(C)c3C)c(=O)c21 | > 749 nM | > 1250 nM | > 10000 nM
COc1ccccc1N1CCN(c2c3c(nc4nncn24)CCC3)CC1 | > 736 nM | > 1250 nM | > 10000 nM
CCCCNC(=O)c1ccc2c(c1)N=C(c1cccc(OCC)c1)N(CCCN1CCCC1=O)C2 | > 752 nM | > 1250 nM | > 10000 nM
O=C(CSc1nc2ccccc2c(=O)n1-c1ccc(C(=O)N2CCOCC2)cc1)c1ccccc1 | > 772 nM | > 1250 nM | > 10000 nM
CN(C)C(=O)CN(C)C(=O)c1cnc2scc(C(C)(C)C)n2c1=O | > 820 nM | > 1250 nM | > 10000 nM
COCCN(CC(=O)Nc1cc(C(C)(C)C)nn1-c1ccc(C)cc1)C(=O)COCc1ccccc1 | > 818 nM | > 1250 nM | > 10000 nM
CN(C)CCCNc1ncc(C(=O)NCc2ccccc2)c(NCCc2ccccc2)n1 | 817 nM | > 1250 nM | > 10000 nM
O=C1C=CC(=O)N1c1ccc(Sc2ccc(N3C(=O)C=CC3=O)cc2)cc1 | > 814 nM | > 1250 nM | > 10000 nM
COc1ccc(OCCOCCN2CCN(C)CC2)cc1 | > 8080 nM | > 12500 nM | > 100000 nM
O=C(COc1ccccc1Cl)OCc1cc(=O)n2nc(C3CC3)sc2n1 | > 803 nM | > 1250 nM | > 10000 nM
COc1ccc(NC(=O)COc2ccccc2C(C)C)c(OC)c1 | 7950 nM | > 12500 nM | > 100000 nM
COc1ccc(Cn2c(SCC(=O)Nc3ccccc3OC)nc3ccsc3c2=O)cc1 | > 778 nM | > 1250 nM | > 10000 nM
CC(C)CNc1nc(NCCC2CCCN2C)ncc1C(=O)NCc1ccccc1 (stereo not drawn) | 775 nM | > 1250 nM | > 10000 nM
CC(=O)OC(OC(C)=O)C12C=CC(O1)C1C(=O)N(c3cccc(C)c3)C(=O)C12 (stereo not drawn) | > 794 nM | > 1250 nM | > 10000 nM
O=C(OCCOc1ccc([N+](=O)[O-])cc1)c1ccc(Br)o1 | 782 nM | > 1250 nM | > 10000 nM
COC(=O)c1[nH]c2ccc(Cl)cc2c1NC(=O)C(C)N1CCN(C2CCCCC2)CC1 (stereo not drawn) | 7740 nM | > 12500 nM | > 100000 nM

Compound | EC50 (Plasmodium falciparum [1]) | EC50 (Plasmodium falciparum [2]) | CC50 [3]
CC(C)CNC(=O)c1cnc(NCCCN2CCCC2)nc1NC1CCCC1 | 774 nM | > 1250 nM | > 10000 nM
COc1ccc(/C=C(\NC(=O)c2ccccc2Br)C(=O)N2CC3CC(C2)c2cccc(=O)n2C3)cc1OC (stereo not drawn) | > 764 nM | > 1250 nM | > 10000 nM
NC(=O)C1CCN(S(=O)(=O)c2cc(Br)c(Br)s2)CC1 | > 751 nM | > 1250 nM | > 10000 nM
O=C(Nc1ccc(-c2nnc(-c3ccccc3)o2)cc1)c1ccc(Br)cc1 | 750 nM | > 1250 nM | > 10000 nM
OCC1CCCN1c1nccnc1-c1ccccc1Oc1ccccc1 (stereo not drawn) | > 868 nM | > 1250 nM | > 10000 nM
CC1CCc2c(sc(NC(=O)c3ccccc3F)c2C(=O)NCc2ccccc2)C1 (stereo not drawn) | > 699 nM | > 1250 nM | > 10000 nM
CCC(=O)N=c1sc2cc([N+](=O)[O-])ccc2n1CCOC | > 686 nM | > 1250 nM | > 10000 nM
Cc1cc(C)n2nc(-c3ccc(Cl)cc3)cc2n1 | > 685 nM | > 1250 nM | > 10000 nM
CCN(CC)Cc1cc(Nc2nc3ccccc3[nH]2)cc(CN(CC)CC)c1O | 864 nM | > 1250 nM | > 10000 nM
COc1ccc(Cn2nnnc2CN2CCc3ccccc3C2)cc1 | > 853 nM | > 1250 nM | > 10000 nM
CCOC(=O)N1CCN(C(=O)CSc2nc(-c3ccc(Cl)cc3)cn2-c2ccc(C)cc2)CC1 | 710 nM | > 1250 nM | > 10000 nM
CN(C)c1nc(Cl)nc(N(C#N)CCOc2ccccc2)n1 | > 703 nM | > 1250 nM | > 10000 nM
CC(C)CNC(=O)c1cnc(NCCC2CCCN2C)nc1NCCc1ccccc1 (stereo not drawn) | 699 nM | > 1250 nM | > 10000 nM
COc1ccc(/C=C/C(=O)Nc2ccc3nc(N4CCN(C)CC4)cc(C)c3c2)cc1OC | 872 nM | > 1250 nM | > 10000 nM
O=C(NCc1ccccc1)c1cnc(NCCCN2CCCC2)nc1NCC1CCCCC1 | 733 nM | > 1250 nM | > 10000 nM
CC(C)CNc1nc(NCCCN2CCCC2)ncc1C(=O)NCCc1ccccc1 | 719 nM | > 1250 nM | > 10000 nM
CCOC(=O)c1oc2cc(O)c(CC)cc2c(=O)c1-c1ccc2c(c1)OCO2 | > 834 nM | > 1250 nM | > 10000 nM
O=[N+]([O-])c1cc(NC2OC(CO)C(OC3OC(CO)C(O)C(O)C3O)C(O)C2O)ccc1Cl (stereo not drawn) | > 848 nM | > 1250 nM | > 10000 nM
COCCCNc1nc2nonc2nc1N(C)C1CCOCC1 | > 682 nM | > 1250 nM | > 10000 nM

Compound | EC50 (Plasmodium falciparum [1]) | EC50 (Plasmodium falciparum [2]) | CC50 [3]
Cc1ccnc(NC(c2ccc3ccccc3c2)c2ccc3cccnc3c2O)c1 (stereo not drawn) | 6750 nM | > 12500 nM | > 100000 nM
O=c1c(=O)n(Cc2cccc(C(F)(F)F)c2)ccn1CCc1ccccc1 | > 673 nM | > 1250 nM | > 10000 nM
Cc1ccccc1Oc1ccc(S(=O)(=O)NC(CC(C)C)C(=O)O)cc1 (stereo not drawn) | > 846 nM | > 1250 nM | > 10000 nM
Cc1cccc(N(C)c2ccnc3c(-c4cccc(C(N)=O)c4)cnn23)c1 | > 843 nM | > 1250 nM | > 10000 nM
Cc1ccc(C(=O)NCCNC(=O)CN2CCOCC2)cc1 | > 671 nM | > 1250 nM | > 10000 nM
CN1CCCC1CCNc1ncc(C(=O)NCc2ccccc2)c(NC2CCCC2)n1 (stereo not drawn) | 658 nM | > 1250 nM | > 10000 nM
CCN1CC=C2C(C#N)=C(N)C(C#N)(C#N)C(c3ccc(C)s3)C2C1 (stereo not drawn) | > 877 nM | > 1250 nM | > 10000 nM
O=C1CSC(=S)N1c1cccc(Cl)c1 | 6870 nM | > 12500 nM | > 100000 nM
N#Cc1cn(-c2ccc(Cl)cc2)c(=O)n(Cc2c(Cl)cccc2Cl)c1=O | 816 nM | > 1250 nM | > 10000 nM
Cc1ccc(NC(=O)c2nc[nH]c2C(=O)Nc2nc3ccccc3[nH]2)c(C)c1 | 7290 nM | > 12500 nM | > 100000 nM
COc1ccc(CNC(=O)CCc2cn(Cc3cc(C)ccc3C)c3ccccc23)cc1OC | > 842 nM | > 1250 nM | > 10000 nM
Cc1ccc(S(=O)(=O)NNC(=O)C2CCC(c3ccccc3)CC2)c2nsnc12 (stereo not drawn) | 727 nM | > 1250 nM | > 10000 nM
Cc1nc(-c2ccncc2)nc(NCCNc2ccc(C(F)(F)F)cn2)c1Cl | 714 nM | > 1250 nM | > 10000 nM
CC1CCCCN1CCCNc1ncc(C(=O)NCCCN2CCCC2=O)c(NCC2CCCCC2)n1 (stereo not drawn) | 850 nM | > 1250 nM | > 10000 nM
CSc1nc(N)nc(SC2C=CCCC2)c1C#N (stereo not drawn) | 7060 nM | > 12500 nM | > 100000 nM
Cc1ccc(S(=O)(=O)Nc2ccc(C(=O)NCCC(C)C)cc2)cc1 | > 837 nM | > 1250 nM | > 10000 nM
Cc1cccc(-c2ccc(NC(=O)C3CCN(Cc4cnc(C)nc4)CC3)cc2)c1 | > 6880 nM | > 12500 nM | > 100000 nM
Cc1cccc2nc(N)nc(N)c12 | 753 nM | > 1250 nM | > 10000 nM

Source: ChEMBL document CHEMBL1156829 (Proc Natl Acad Sci U S A, 2008)
